Assay results from patent US20090018111A1, “Novel Antimicrobial Medicament” (priority 2004, published 2009).
Like-named read-outs stand apart in the source and are kept apart here.

How the values were obtained:
S. epidermidis IAM1296 = experiment: Sensitivity test (agar dilution); type: cell-based, Staphylococcus epidermidis; settings: Staphylococcus epidermidis, S. epidermidis IAM1296
Description: (§1) The antibacterial activities were tested against various 18 bacteria (27 standard strains) which are representative bacteria caused clinically infectious disease (Staphylococcus aureus 3 strains, Staphylococcus epidermidis 1 strain, Micrococcus luteus 1 strain, Streptococcus pyogenes 1 strain, Enterococcus faecalis 1 strain, Enterococcus faecium 1 strain, Bacillus subtilis 1 strain, Escherichia coli 3 strains, Klebsiella pneumoniae 1 strain, Proteus mirabilis 1 strain, Proteus vulgaris 2 strains, Pseudomonas aeruginosa 3 strains, Serratia marcescens 2 strains, Enterobacter aerogenes 1 strain, Stenotrophomonas maltophilia 1 strain, Enterobacter cloacae 1 strain, Citrobacter freundii 1 strain, Moraxella catarrhalis 2 strains).
(§2) According to the standard method of Japan Chemotherapeutic Society (Chemotherapy, vol. […], p 76-79 (1981)) the test was carried out using the agar dilution method. After dissolving test samples in distilled water, agar medium containing the test samples was prepared in such a manner that the final concentration became twice serial dilution by pouring serially diluted combination drug solution or a single drug solution into agar medium. As agar medium was used Mueller Hinton Agar medium (MHA). Then, each strain was cultivated over night at 37° C. in an incubator and suspended in buffered saline solution with gelatin (BSG) in the concentration of about 10^6 CFU/ml. The suspension (about 5 μl) containing test strains was inoculated to the medium containing the test samples by Micro Planter.
(§3) When the sample is subjected to sensitivity test, this mixed solution was diluted by twice serial dilution method.
(§4) Furthermore, when the drug is solely used, each test sample was used as it is, and diluted by twice serial dilution method from the maximum concentration to the minimum concentration.
(§5) FIC index based on MIC value was calculated. […] Namely, when FIC index calculated by the following formula is equal or less than 1, the enhanced effect of the combination drug in said ratio is considered as positive. When FIC index is over 1, the enhanced effect of the combination drug in said ratio is considered as negative.
(§6) Formula of FIC index: FIC index=(MIC of Drug A in combination/MIC of Drug A alone)+(MIC of Drug B in combination/MIC of Drug B alone) N.C. in tables means being not calculated.

M. luteus ATCC9341 = experiment: Sensitivity test (agar dilution); type: cell-based, Micrococcus luteus; settings: Micrococcus luteus, M. luteus ATCC9341
Description: as §1, §2, §3, §4, §5, §6

E. faecium ATCC19434 = experiment: Sensitivity test (agar dilution); type: cell-based, Enterococcus faecium; settings: Enterococcus faecium, E. faecium ATCC19434
Description: as §1, §2, §3, §4, §5, §6

E. coli ML1410 RP4 = experiment: microbe, parasite or virus in culture; type: cell-based, Escherichia coli; settings: Escherichia coli, E. coli ML1410 RP4
Description: as §1, §2, §3, §4, §5, §6

K. pneumoniae ATCC10031 = experiment: Sensitivity test (agar dilution); type: cell-based, Klebsiella pneumoniae; settings: Klebsiella pneumoniae, K. pneumoniae ATCC10031
Description: as §1, §2, §3, §4, §5, §6

P. mirabiris GN2425 = experiment: Sensitivity test (agar dilution); type: cell-based, Proteus mirabilis; settings: Proteus mirabilis, P. mirabiris GN2425
Description: as §1, §2, §3, §4, §5, §6

S. marcescens GN6473 = experiment: Sensitivity test (agar dilution); type: cell-based, Serratia marcescens; settings: Serratia marcescens, S. marcescens GN6473
Description: as §1, §2, §3, §4, §5, §6

S. marcescens X 100 = experiment: Sensitivity test (agar dilution); type: cell-based, Serratia marcescens; settings: Serratia marcescens, S. marcescens X 100
Description: as §1, §2, §3, §4, §5, §6

E. cloacae GN7471 = experiment: Sensitivity test (agar dilution); type: cell-based, Enterobacter cloacae; settings: Enterobacter cloacae, E. cloacae GN7471
Description: as §1, §2, §3, §4, §5, §6

C. freundii GN346 = experiment: Sensitivity test (agar dilution); type: cell-based, Citrobacter freundii; settings: Citrobacter freundii, C. freundii GN346
Description: as §1, §2, §3, §4, §5, §6

S. maltophilia IID1275 = experiment: Sensitivity test (agar dilution); type: cell-based, Stenotrophomonas maltophilia; settings: Stenotrophomonas maltophilia, S. maltophilia IID1275
Description: as §1, §2, §3, §4, §5, §6

M. catarrhalis ATCC25238 = experiment: Sensitivity test (agar dilution); type: cell-based, Moraxella catarrhalis; settings: Moraxella catarrhalis, M. catarrhalis ATCC25238
Description: as §1, §2, §3, §4, §5, §6

M. catarrhalis ATCC8176 = experiment: Sensitivity test (agar dilution); type: cell-based, Moraxella catarrhalis; settings: Moraxella catarrhalis, M. catarrhalis ATCC8176
Description: as §1, §2, §3, §4, §5, §6

`CC(=N)N1CC[C@H](SC2=C(C(=O)O)N3C(=O)[C@H]([C@@H](C)O)[C@H]3C2)C1` [PAPM, panipenem] was tested, and the MIC (S. epidermidis IAM1296; IAM1296, Concomitant (PAPM:SM = 1:1), read-out: MIC concomitant) was 0.016 µg/mL, the MIC (S. epidermidis IAM1296; IAM1296, drug alone, read-out: MIC alone) was 0.5 µg/mL and the MIC (M. luteus ATCC9341; ATCC9341, Concomitant (PAPM:SM = 1:1), read-out: MIC concomitant) was ≤ 0.002 µg/mL. For the same compound, the MIC (M. luteus ATCC9341; ATCC9341, drug alone, read-out: MIC alone) was 0.031 µg/mL, the MIC (E. faecium ATCC19434; ATCC19434, Concomitant (PAPM:SM = 1:1), read-out: MIC concomitant) was 0.125 µg/mL and the MIC (E. faecium ATCC19434; ATCC19434, drug alone, read-out: MIC alone) was 8 µg/mL. For the same compound, the MIC (E. coli ML1410 RP4; ML1410RP4, read-out: MIC alone, drug alone) was 0.5 µg/mL, the MIC (E. coli ML1410 RP4; ML1410RP4, read-out: MIC concomitant, Concomitant (PAPM:SM = 1:1)) was 0.125 µg/mL and the MIC (K. pneumoniae ATCC10031; ATCC10031, Concomitant (PAPM:SM = 1:1), read-out: MIC concomitant) was 0.016 µg/mL. For the same compound, the MIC (K. pneumoniae ATCC10031; ATCC10031, drug alone, read-out: MIC alone) was 0.125 µg/mL, the MIC (P. mirabiris GN2425; GN2425, Concomitant (PAPM:SM = 1:1), read-out: MIC concomitant) was 0.125 µg/mL and the MIC (P. mirabiris GN2425; GN2425, drug alone, read-out: MIC alone) was 1 µg/mL. It also gave an MIC (S. marcescens GN6473; GN6473, Concomitant (PAPM:SM = 1:1), read-out: MIC concomitant) of 0.25 µg/mL, an MIC (S. marcescens GN6473; GN6473, drug alone, read-out: MIC alone) of 0.5 µg/mL and an MIC (S. marcescens X 100; X100, Concomitant (PAPM:SM = 1:1), read-out: MIC concomitant) of 0.125 µg/mL. For the same compound, the MIC (S. marcescens X 100; X100, drug alone, read-out: MIC alone) was 0.25 µg/mL, the MIC (E. cloacae GN7471; GN7471, Concomitant (PAPM:SM = 1:1), read-out: MIC concomitant) was 0.125 µg/mL and the MIC (E. cloacae GN7471; GN7471, drug alone, read-out: MIC alone) was 0.25 µg/mL. The MIC (C. freundii GN346; GN346, Concomitant (PAPM:SM = 1:1), read-out: MIC concomitant) was 0.25 µg/mL, the MIC (C. freundii GN346; GN346, drug alone, read-out: MIC alone) was 0.5 µg/mL and the MIC (S. maltophilia IID1275; IID1275, Concomitant (PAPM:SM = 1:1), read-out: MIC concomitant) was > 32 µg/mL. The MIC (S. maltophilia IID1275; IID1275, drug alone, read-out: MIC alone) was > 32 µg/mL, the MIC (M. catarrhalis ATCC25238; ATCC25238, Concomitant (PAPM:SM = 1:1), read-out: MIC concomitant) was ≤ 0.002 µg/mL and the MIC (M. catarrhalis ATCC25238; ATCC25238, drug alone, read-out: MIC alone) was 0.008 µg/mL. For the same compound, the MIC (M. catarrhalis ATCC8176; ATCC8176, Concomitant (PAPM:SM = 1:1), read-out: MIC concomitant) was ≤ 0.002 µg/mL and the MIC (M. catarrhalis ATCC8176; ATCC8176, drug alone, read-out: MIC alone) was 0.008 µg/mL.
